Data published in the NIST ThermoML archive (doi:10.1021/je400134d).

Test: xn = mol fraction of the nth substance listed
Settings: 100 kPa, Liquid; for speed of sound: Pulse-echo method; for mass density: Vibrating tube method

CNc1ccccc1 [N-methylaniline] + Cc1ccccc1
Settings	mass density [kg/m3]	speed of sound [m/s]
293.15 K, x1 = 0.0541	873.9	1339.3
293.15 K, x1 = 0.0986	879.611	1350.5
293.15 K, x1 = 0.1502	886.145	1363.2
293.15 K, x1 = 0.1989	892.268	1375.1
293.15 K, x1 = 0.2473	898.297	1387
293.15 K, x1 = 0.2982	904.623	1399.7
293.15 K, x1 = 0.35	910.972	1412.6
293.15 K, x1 = 0.3898	915.862	1422.7
293.15 K, x1 = 0.446	922.654	1436.8
293.15 K, x1 = 0.4872	927.615	1447.3
293.15 K, x1 = 0.5426	934.227	1461.5
293.15 K, x1 = 0.5859	939.349	1472.7
293.15 K, x1 = 0.6441	946.179	1487.8
293.15 K, x1 = 0.6894	951.429	1499.7
293.15 K, x1 = 0.7385	957.096	1512.7
293.15 K, x1 = 0.7823	962.1	1524.3
293.15 K, x1 = 0.8377	968.392	1539.6
293.15 K, x1 = 0.8834	973.522	1551.3
293.15 K, x1 = 0.9299	978.698	1563.7
298.15 K, x1 = 0.0532	869.146	1317.9
298.15 K, x1 = 0.0998	875.098	1329.6
298.15 K, x1 = 0.1518	881.77	1342.7
298.15 K, x1 = 0.1906	886.675	1352.4
298.15 K, x1 = 0.2452	893.525	1366
298.15 K, x1 = 0.2887	898.955	1377
298.15 K, x1 = 0.3417	905.492	1390.3
298.15 K, x1 = 0.39	911.437	1402.7
298.15 K, x1 = 0.4434	917.945	1416.3
298.15 K, x1 = 0.49	923.58	1428.3
298.15 K, x1 = 0.5415	929.747	1441.7
298.15 K, x1 = 0.5792	934.236	1451.5
298.15 K, x1 = 0.6432	941.787	1468.4
298.15 K, x1 = 0.6868	946.88	1479.9
298.15 K, x1 = 0.7407	953.128	1494.3
298.15 K, x1 = 0.7823	957.907	1505.4
298.15 K, x1 = 0.8378	964.233	1520.4
298.15 K, x1 = 0.8844	969.501	1533
298.15 K, x1 = 0.934	975.057	1546.4
303.15 K, x1 = 0.053	864.574	1297.3
303.15 K, x1 = 0.0982	870.409	1308.8
303.15 K, x1 = 0.1501	877.091	1321.9
303.15 K, x1 = 0.1929	882.501	1332.7
303.15 K, x1 = 0.2456	889.168	1346.1
303.15 K, x1 = 0.2837	893.953	1355.7
303.15 K, x1 = 0.3444	901.518	1371.2
303.15 K, x1 = 0.3919	907.37	1383.4
303.15 K, x1 = 0.4478	914.21	1397.8
303.15 K, x1 = 0.4918	919.549	1409.3
303.15 K, x1 = 0.5391	925.243	1421.7
303.15 K, x1 = 0.5886	931.18	1434.7
303.15 K, x1 = 0.6395	937.212	1448.2
303.15 K, x1 = 0.6846	942.503	1460.2
303.15 K, x1 = 0.7398	948.933	1475
303.15 K, x1 = 0.7782	953.381	1485.3
303.15 K, x1 = 0.842	960.67	1502.3
303.15 K, x1 = 0.879	964.897	1512.7
303.15 K, x1 = 0.934	971.087	1527.6

CNc1ccccc1 [N-methylaniline] + C1CCCCC1
Settings	mass density [kg/m3]	speed of sound [m/s]
293.15 K, x1 = 0.0516	787.947	1285.7
293.15 K, x1 = 0.1047	798.075	1294.4
293.15 K, x1 = 0.1522	807.416	1303
293.15 K, x1 = 0.2023	817.479	1313.2
293.15 K, x1 = 0.2482	826.755	1322.9
293.15 K, x1 = 0.3018	837.718	1335.3
293.15 K, x1 = 0.3462	846.906	1346.3
293.15 K, x1 = 0.4049	859.091	1362
293.15 K, x1 = 0.4478	868.011	1374.1
293.15 K, x1 = 0.4972	878.435	1389.1
293.15 K, x1 = 0.5444	888.383	1404.1
293.15 K, x1 = 0.5942	898.936	1420.7
293.15 K, x1 = 0.6445	909.64	1438.3
293.15 K, x1 = 0.6931	920.029	1456
293.15 K, x1 = 0.7564	933.633	1480.3
293.15 K, x1 = 0.7917	941.225	1494.2
293.15 K, x1 = 0.8372	951.07	1512.7
293.15 K, x1 = 0.89	962.5	1534.8
293.15 K, x1 = 0.9446	974.383	1558.2
298.15 K, x1 = 0.0673	786.236	1264.5
298.15 K, x1 = 0.1073	793.946	1271.7
298.15 K, x1 = 0.1609	804.548	1282
298.15 K, x1 = 0.2065	813.772	1291.8
298.15 K, x1 = 0.2536	823.353	1302.3
298.15 K, x1 = 0.2963	832.165	1312.6
298.15 K, x1 = 0.3554	844.401	1327.8
298.15 K, x1 = 0.3981	853.363	1339.6
298.15 K, x1 = 0.4479	863.765	1354
298.15 K, x1 = 0.5055	875.962	1371.8
298.15 K, x1 = 0.5537	886.222	1387.5
298.15 K, x1 = 0.5968	895.414	1402.5
298.15 K, x1 = 0.6482	906.388	1420.6
298.15 K, x1 = 0.6939	916.254	1437.6
298.15 K, x1 = 0.753	928.945	1460.4
298.15 K, x1 = 0.795	938.08	1477.2
298.15 K, x1 = 0.8347	946.748	1493.6
298.15 K, x1 = 0.8896	958.645	1516.7
298.15 K, x1 = 0.9399	969.599	1538.5
303.15 K, x1 = 0.0581	779.854	1239.8
303.15 K, x1 = 0.1038	788.651	1248.4
303.15 K, x1 = 0.1557	798.906	1258.8
303.15 K, x1 = 0.2015	808.134	1268.8
303.15 K, x1 = 0.2526	818.565	1280.6
303.15 K, x1 = 0.2975	827.884	1291.7
303.15 K, x1 = 0.3479	838.328	1304.9
303.15 K, x1 = 0.3974	848.695	1318.7
303.15 K, x1 = 0.451	859.961	1334.5
303.15 K, x1 = 0.5005	870.442	1351.5
303.15 K, x1 = 0.5512	881.294	1366.7
303.15 K, x1 = 0.5922	890.064	1380.8
303.15 K, x1 = 0.6575	904.033	1404.2
303.15 K, x1 = 0.6956	912.351	1418.6
303.15 K, x1 = 0.7501	924.185	1439.9
303.15 K, x1 = 0.7995	934.921	1459.7
303.15 K, x1 = 0.8447	944.844	1478.6
303.15 K, x1 = 0.8956	955.901	1500
303.15 K, x1 = 0.9411	965.875	1520
